Experimental findings from patent US8933103B2, “Pyridone derivatives” (Daiichi Sankyo Company, Limited, priority 2012, dated 2015) are described below.

Assay [1] deals with T1, AXL (fusion protein of amino acids 464-885 of the intracellular domain of human AXL with glutathione transferase) (Homo sapiens, UniProt P30530).
T1 sequence (P30530 464-885 isoform P30530-2): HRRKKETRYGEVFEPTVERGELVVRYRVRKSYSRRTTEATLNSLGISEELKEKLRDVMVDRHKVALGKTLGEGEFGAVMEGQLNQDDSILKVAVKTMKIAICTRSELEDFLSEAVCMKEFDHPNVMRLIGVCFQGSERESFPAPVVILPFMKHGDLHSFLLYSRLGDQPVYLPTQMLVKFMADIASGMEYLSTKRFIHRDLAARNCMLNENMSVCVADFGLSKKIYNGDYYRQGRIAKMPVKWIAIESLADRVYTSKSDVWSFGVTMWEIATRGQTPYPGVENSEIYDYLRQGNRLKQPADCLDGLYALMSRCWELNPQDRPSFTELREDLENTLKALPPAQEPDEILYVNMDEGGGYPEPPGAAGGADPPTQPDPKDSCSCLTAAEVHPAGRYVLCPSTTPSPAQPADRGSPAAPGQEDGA
Put plainly: Cell-Free Axl Kinase Inhibitory Activity.
Experimental: Next, the test compound was diluted with DMSO, and 1 μl of this diluted solution was added to each well.
Five microliters of this solution were added to each well to initiate a kinase reaction. The plate was incubated at 28° C. for 1.5 hours, and 40 μl of a termination buffer (100 mM HEPES (pH 7.4), 0.015% Brij-35, 40 mM EDTA, 0.1% Coating Reagent 3) was added to each well to terminate the reaction.
The substrate peptide and the phosphorylated peptide in the reaction solution were separated and quantified by EZ Reader II (Caliper Life Sciences).
IC50 was determined from inhibition data for 12 test compound concentrations by nonlinear regression (four-parameter logistic regression) using the following formula.

In assay [2] the target is T2, phosphorylated Axl (pAxl Y702) in NCI-H1299 cells (Homo sapiens, UniProt P30530).
T2 construct: endogenous in cells; host or cells: NCI-H1299
T2 sequence (P30530 26-894): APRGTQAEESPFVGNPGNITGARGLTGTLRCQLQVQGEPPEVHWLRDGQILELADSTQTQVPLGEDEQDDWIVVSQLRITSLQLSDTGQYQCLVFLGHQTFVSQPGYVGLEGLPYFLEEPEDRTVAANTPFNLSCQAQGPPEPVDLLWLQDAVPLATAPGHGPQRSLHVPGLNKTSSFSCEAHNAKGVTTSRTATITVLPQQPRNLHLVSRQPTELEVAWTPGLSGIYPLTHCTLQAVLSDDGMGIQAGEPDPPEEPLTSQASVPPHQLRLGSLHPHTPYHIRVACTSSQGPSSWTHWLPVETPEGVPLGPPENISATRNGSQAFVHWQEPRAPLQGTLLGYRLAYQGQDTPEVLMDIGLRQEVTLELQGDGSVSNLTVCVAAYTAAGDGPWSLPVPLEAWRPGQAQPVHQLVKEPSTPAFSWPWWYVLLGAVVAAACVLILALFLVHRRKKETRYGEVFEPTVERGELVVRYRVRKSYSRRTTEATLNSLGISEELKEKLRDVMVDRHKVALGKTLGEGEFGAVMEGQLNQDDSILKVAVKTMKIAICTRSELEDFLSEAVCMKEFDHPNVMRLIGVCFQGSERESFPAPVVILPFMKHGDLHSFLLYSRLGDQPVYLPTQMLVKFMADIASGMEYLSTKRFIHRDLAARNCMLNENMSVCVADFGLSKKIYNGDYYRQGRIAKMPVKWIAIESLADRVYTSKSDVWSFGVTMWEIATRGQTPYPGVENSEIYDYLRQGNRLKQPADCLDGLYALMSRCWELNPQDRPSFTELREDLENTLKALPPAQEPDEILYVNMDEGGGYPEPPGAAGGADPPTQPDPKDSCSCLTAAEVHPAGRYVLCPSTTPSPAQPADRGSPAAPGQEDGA
The assay can be described thus: Intracellular Axl Phosphorylation Inhibitory Activity (pAxl, NCI-H1299 cells). In kind it is cell-based. As to conditions: 1 h compound incubation, GAS6 stimulation 10 minutes, pAxl (Y702) level. The procedure:
A phosphorylated Axl (hereinafter pAxl) inhibitory test was performed using the human non-small-cell lung cancer-derived cell strain NCI-H1299.
On the following day, the medium was removed, 100 μl of fresh medium were added, and the cells were cultured at 37° C. in the presence of 5% CO2 for one day.
The test compound was dissolved in DMSO and diluted with medium to prepare a sample solution (DMSO concentration: 2%). Twenty-five microliters of medium or sample-added medium was added to each well (DMSO concentration: 0.4%), and the plate was incubated at 37° C. in the presence of 5% CO2 for one hour.
After stirring, the plate was incubated at 37° C. in the presence of 5% CO2 for 10 minutes.
The supernatant was discarded, and 0.1 ml of a 37% formalin solution diluted to 4% with phosphate buffer (PBS) (hereinafter “4% formalin solution”) was added to each well. The plate was allowed to stand at room temperature for 10 minutes.
Next, the 4% formalin solution was discarded, and 0.2 ml of a solution of Triton X-100 diluted to 0.1% with PBS (hereinafter “wash buffer”) was added. The wash buffer was discarded using a decanter, and excess moisture in the plate was removed on a paper towel.
Subsequently, […] NaN3 and H2O2 were added to the wash buffer at 0.1% (hereinafter “quenching buffer”), and 0.1 ml of the quenching buffer was added to each well. The plate was allowed to stand at room temperature for 15 minutes.
The quenching buffer was discarded, and 0.2 ml of wash buffer was added. The wash buffer was discarded using a decanter, and excess moisture in the plate was removed on a paper towel.
Skim milk (Nacalai Tesque) was added to the wash buffer at a final concentration of 5% (hereinafter “blocking buffer”), and 0.25 ml of the blocking buffer was added to each well. The plate was allowed to stand at room temperature for one hour.
After light stirring, the plate was incubated for 20 minutes. Luminescence was then measured by ARVO sx (PerkinElmer), and the pAxl (Y702) level was measured.
pAxl Inhibitory activity was determined by the following formula. Inhibition %=100−(A−B)×100/(T−B)
A: Measurement of the test compound
T: Luminescence value of the reaction solution with a compound not added

Usually IC50 stands for the concentration at which inhibition is half-maximal.

Take `COc1cccc(-c2cnc(N)c(-c3ccc(NC(=O)c4cn(CC(F)(F)F)cc(-c5ccc(F)cc5)c4=O)cc3)c2)c1` [Example 33, N-{4-[2-Amino-5-(3-methoxyphenyl)pyridin-3-yl]phenyl}-5-(4-fluorophenyl)-4-oxo-1-(2,2,2-trifluoroethyl)-1,4-dihydropyridine-3-carboxamide]: the half-maximal inhibitory concentration (IC50) in assay [1] fell in the range of 1 to 10 nM; in assay [2], 50 to 100 nM.
Take `Cc1ccc(-c2cnc(N)c(-c3ccc(NC(=O)c4cn(CC(F)(F)F)cc(-c5ccc(F)cc5)c4=O)cc3)c2)cc1` [Example 35, N-{4-[2-Amino-5-(4-methylphenyl)pyridin-3-yl]phenyl}-5-(4-fluorophenyl)-4-oxo-1-(2,2,2-trifluoroethyl)-1,4-dihydropyridine-3-carboxamide]: the results for the IC50 in assay [1] and in assay [2] were 10 to 20 nM and 100 to 500 nM, respectively.
Turning to `Nc1ncc(-c2cccc(Cl)c2)cc1-c1ccc(NC(=O)c2cn(CC(F)(F)F)cc(-c3ccc(F)cc3)c2=O)cc1` [Example 36, N-{4-[2-Amino-5-(3-chlorophenyl)pyridin-3-yl]phenyl}-5-(4-fluorophenyl)-4-oxo-1-(2,2,2-trifluoroethyl)-1,4-dihydropyridine-3-carboxamide], the IC50 is 10 to 20 nM in assay [1] and 100 to 500 nM in assay [2].
On to `CC(C)(O)Cn1cc(C(=O)Nc2ccc(-c3cc(-c4cnn(C[C@H]5COCCO5)c4)cnc3N)cc2)c(=O)c(-c2ccc(F)cc2)c1` [Example 68, N-[4-(2-Amino-5-{1-[(2S)-1,4-dioxan-2-ylmethyl]-1H-pyrazol-4-yl}pyridin-3-yl)phenyl]-5-(4-fluorophenyl)-1-(2-hydroxy-2-methylpropyl)-4-oxo-1,4-dihydropyridine-3-carboxamide], for which the figures for the IC50 in assay [1] and in assay [2] were 10 to 20 nM and 100 to 500 nM, respectively.
As to `CCN(CC)CCn1cc(C(=O)Nc2ccc(-c3cc(-c4cnn(C[C@H]5COCCO5)c4)cnc3N)cc2)c(=O)c(-c2ccc(F)cc2)c1` [Example 69, N-[4-(2-Amino-5-{1-[(2S)-1,4-dioxan-2-ylmethyl]-1H-pyrazol-4-yl}pyridin-3-yl)phenyl]-1-[2-(diethylamino)ethyl]-5-(4-fluorophenyl)-4-oxo-1,4-dihydropyridine-3-carboxamide], the IC50 lay in the range of 1 to 10 nM in assay [1] and 100 to 500 nM in assay [2].
Regarding `COC1CN(C(=O)c2cn(Cc3ccc(F)cc3)cc(C(=O)Nc3ccc(-c4cc(-c5cnn(C[C@H]6COCCO6)c5)cnc4N)cc3)c2=O)C1` [Example 72, N-[4-(2-Amino-5-{1-[(2S)-1,4-dioxan-2-ylmethyl]-1H-pyrazol-4-yl}pyridin-3-yl)phenyl]-1-(4-fluorobenzyl)-5-[(3-methoxyazetidin-1-yl)carbonyl]-4-oxo-1,4-dihydropyridine-3-carboxamide], the half-inhibitory concentration (IC50) is 1 to 10 nM in assay [1] and 50 to 100 nM in assay [2].
Regarding `CN1CC=C(c2cnc(N)c(-c3ccc(NC(=O)c4cn(CC(F)(F)F)cc(-c5ccc(F)cc5)c4=O)cc3)c2)CC1` [Example 79, N-[4-(6-Amino-1′-methyl-1′,2′,3′,6′-tetrahydro-3,4′-bipyridin-5-yl)phenyl]-5-(4-fluorophenyl)-4-oxo-1-(2,2,2-trifluoroethyl)-1,4-dihydropyridine-3-carboxamide], the IC50 in assay [1] was in the range of 1 to 10 nM; in assay [2], 50 to 100 nM.
The like results for `CC(=O)N1C2C=C(c3cnc(N)c(-c4ccc(NC(=O)c5cn(CCF)cc(-c6ccc(F)cc6)c5=O)cc4)c3)CC1CC2` (centres unmarked) [Example 81, N-{4-[5-(8-Acetyl-8-azabicyclo[3.2.1]oct-2-en-3-yl)-2-aminopyridin-3-yl]phenyl}-1-(2-fluoroethyl)-5-(4-fluorophenyl)-4-oxo-1,4-dihydropyridine-3-carboxamide] were, in that order, 23 nM and 100 to 500 nM.
Turning to `COc1ccnc(N)c1-c1ccc(NC(=O)c2cn(Cc3ccc(F)cc3)cc(C(=O)N3CCCC3)c2=O)cc1` [Example 84, N-[4-(2-Amino-4-methoxypyridin-3-yl)phenyl]-1-(4-fluorobenzyl)-4-oxo-5-(pyrrolidin-1-ylcarbonyl)-1,4-dihydropyridine-3-carboxamide], the IC50 in assay [1] is 10 to 20 nM; in assay [2], 100 to 500 nM.
Turning to `COc1ccc(-c2cnc(N)c(-c3ccc(NC(=O)c4cn(CC(F)(F)F)cc(-c5ccc(F)c(Br)c5)c4=O)cc3)c2)cc1OC` [Example 89, N-{4-[2-Amino-5-(3,4-dimethoxyphenyl)pyridin-3-yl]phenyl}-5-(4-fluoro-3-bromophenyl)-4-oxo-1-(2,2,2-trifluoroethyl)-1,4-dihydropyridine-3-carboxamide], the IC50 in assay [1] lay within 1 to 10 nM; in assay [2], 50 to 100 nM.
